“And” between values parts separate entries of the source, which are not always exact repeats. Equal entries are not always repeated.
Experiments:
[1] = system: Human immunodeficiency virus 1; assay: The activity against HIV mutant strain V82F was determined from patient number 313; assay type: functional, organism-based
[2] = system: Rattus norvegicus; assay: Maximum plasma concentration was evaluated in vivo in rat at a dose of 5 mg/kg by oral administration; assay type: ADME, organism-based; set-up: dose 5 mg/kg, route oral
[3] = system: Human immunodeficiency virus 1; assay: The activity against mutant HIV molecular clone V82A was determined; assay type: functional, organism-based
[4] = system: MT4; assay: Inhibitory potency towards recombinant HIV-1 3B in MT-4 cell was evaluated in 0% human plasma; assay type: functional, cell-based
[5] = system: Human immunodeficiency virus 1; assay: The activity against mutant HIV molecular clone wt (pNL4-3) was determined; assay type: functional, organism-based
[6] = system: Human immunodeficiency virus 1; assay: The activity against mutant HIV molecular clone V82T was determined; assay type: functional, organism-based
[7] = system: Human immunodeficiency virus 1; assay: The activity against HIV was determined from patient number 304; assay type: functional, organism-based
[8] = system: MT4; assay: Inhibitory potency towards recombinant HIV-1 3B in MT-4 cell was evaluated in 50% human plasma; assay type: functional, cell-based
[9] = system: Rattus norvegicus; assay: Oral bioavailability in rat (dose 5 mg/kg); assay type: ADME, organism-based; details: in vivo
[10] = system: MT4; assay: Inhibitory potency towards recombinant HIV-1 3B in MT-4 cell using cytopathic effect as endpoint was evaluated in 0% human plasma; assay type: functional
[11] = system: Human immunodeficiency virus 1; assay: The activity against HIV multiply mutated strain M36M/I,V82V/A was determined from patient number 304; assay type: functional, organism-based
[12] = system: Human immunodeficiency virus 1; assay: The activity against multiply mutated strain M36I,I54V,A71V,V82T was determined from patient number 129; assay type: functional, organism-based
[13] = system: Human immunodeficiency virus 1; assay: The activity against HIV was determined from patient number 337; assay type: functional, organism-based
[14] = system: Human immunodeficiency virus 1; assay: The activity against HIV mutant strain V82A was determined from patient number 302; assay type: functional, organism-based
[15] = system: Human immunodeficiency virus 1; assay: The activity against HIV was determined from patient number 313; assay type: functional, organism-based
[16] = system: Human immunodeficiency virus 1; assay: The activity against HIV mutant strain V82S was determined from patient number 337; assay type: functional, organism-based
[17] = system: Human immunodeficiency virus 1; assay: The activity against mutant HIV molecular clone V82F was determined; assay type: functional, organism-based
[18] = system: Human immunodeficiency virus 1; assay: The activity against HIV was determined from patient number 129; assay type: functional, organism-based
[19] = system: Human immunodeficiency virus 1; assay: The activity against HIV was determined from patient number 302; assay type: functional, organism-based
[20] = system: Rattus norvegicus; assay: Terminal phase half-life was evaluated in vivo in rat at a dose of 5 mg/kg by intra venous administration; assay type: ADME, organism-based; set-up: dose 5 mg/kg; details: iv

Row | SMILES | EC50 [1] | Cmax [2] | EC50 [3] | EC50 [4] | EC50 [5] | EC50 [6] | EC50 [7] | EC50 [8] | F [9] | CCIC50 [10] | EC50 [11] | EC50 [12] | EC50 [13] | EC50 [14] | EC50 [15] | EC50 [16] | EC50 [17] | EC50 [18] | EC50 [19] | T1/2 [20]
1 | CC(C)c1nc(CN(C)C(=O)N[C@H](C(=O)N[C@@H](Cc2ccccc2)C[C@H](O)[C@H](Cc2ccccc2)NC(=O)OCc2cncs2)C(C)C)cs1 [RITONAVIR] | 123 nM | 1360 ng/mL and 3580 ng/mL | 230 nM | 90 nM | 55 nM | 316 nM | 19 nM | 1070 nM | 70.7% and 37.4% and 29.9% | 35 µM | 54 nM | 65 nM | 35 nM | 32 nM | 35 nM | 143 nM | 308 nM | 5 nM | – | –
2 | CC(C)c1nc(CN(C)C(=O)N[C@@H](C(=O)N[C@@H](Cc2ccccc2)C[C@H](O)[C@H](Cc2ccccc2)NC(=O)OCc2cncs2)C(C)C)cs1 | 43 nM | – | 121 nM | 120 nM | 137 nM | 352 nM | 35 nM | 880 nM | – | 27 µM | 59 nM | – | 19 nM | 43 nM | 35 nM | 22 nM | 276 nM | 5 nM | 46 nM | 1.8 h and 1.41 h and 0.63 h

— ChEMBL document CHEMBL1149966 (Bioorg Med Chem Lett, 1997)
